{"source": "paper PMC6716157", "about": "(Journal of the American Chemical Society, 2019)", "key": {"MsMftD": {"molecular_target": "MsMftD (Mycolicibacterium smegmatis, UniProt A0QSB9)", "sequence (A0QSB9 whole entry)": "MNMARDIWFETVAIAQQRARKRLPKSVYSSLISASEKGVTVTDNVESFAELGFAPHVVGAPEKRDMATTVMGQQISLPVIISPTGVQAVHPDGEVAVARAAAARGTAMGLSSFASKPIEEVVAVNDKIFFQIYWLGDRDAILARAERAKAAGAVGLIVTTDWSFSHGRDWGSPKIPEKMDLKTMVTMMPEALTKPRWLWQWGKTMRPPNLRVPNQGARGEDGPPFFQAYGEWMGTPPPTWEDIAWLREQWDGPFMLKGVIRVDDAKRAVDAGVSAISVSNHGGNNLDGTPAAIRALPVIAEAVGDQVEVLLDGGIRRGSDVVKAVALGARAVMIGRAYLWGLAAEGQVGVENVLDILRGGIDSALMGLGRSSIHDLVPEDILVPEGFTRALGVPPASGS", "experiment": "HPLC of product, aerobic", "format": "biochemical", "conditions": "oxidative deamination to PMFT"}, "MuMftD (MftD)": {"molecular_target": "T1, MuMftD (MftD) (Mycobacterium ulcerans, UniProt A0PM50)", "T1 sequence (A0PM50 1-390)": "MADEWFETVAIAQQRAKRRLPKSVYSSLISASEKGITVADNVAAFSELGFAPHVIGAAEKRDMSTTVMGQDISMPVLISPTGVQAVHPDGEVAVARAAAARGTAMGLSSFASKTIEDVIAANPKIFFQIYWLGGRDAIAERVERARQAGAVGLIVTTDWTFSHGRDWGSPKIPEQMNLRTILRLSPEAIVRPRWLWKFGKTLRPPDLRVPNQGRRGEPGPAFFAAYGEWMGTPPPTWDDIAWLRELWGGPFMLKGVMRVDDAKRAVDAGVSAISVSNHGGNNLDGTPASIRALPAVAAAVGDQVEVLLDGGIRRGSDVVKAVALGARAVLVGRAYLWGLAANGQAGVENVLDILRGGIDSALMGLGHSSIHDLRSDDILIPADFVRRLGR", "experiment": "HPLC of flavin released by heat from purified protein", "format": "binding", "conditions": "copurified; bound reduced as isolated, released on oxidation"}, "[1]": {"molecular_target": "MsCDH (carveol dehydrogenase, Msmeg_1410) (Mycolicibacterium smegmatis, UniProt A0QSA5)", "sequence (A0QSA5 1-283)": "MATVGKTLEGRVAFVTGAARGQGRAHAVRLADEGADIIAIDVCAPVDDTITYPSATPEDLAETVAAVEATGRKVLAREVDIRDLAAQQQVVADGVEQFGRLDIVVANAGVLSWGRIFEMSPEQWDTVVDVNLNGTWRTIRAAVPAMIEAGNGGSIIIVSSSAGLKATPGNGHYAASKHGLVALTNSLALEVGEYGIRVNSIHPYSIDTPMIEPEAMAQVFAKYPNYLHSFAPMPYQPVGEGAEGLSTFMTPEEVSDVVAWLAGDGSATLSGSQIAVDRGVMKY", "experiment": "UV-vis absorbance of copurified NADH at […] nm", "format": "binding", "conditions": "pH 7.0, non-exchangeable, oxidised by PMFT"}}}
{"compound": "CC1(C)C(Cc2ccc(O)cc2)NC(=O)C1N", "note": "(stereo not drawn) [AHDP, 3-amino-5-[(p-hydroxyphenyl)methyl]-4,4-dimethyl-2-pyrrolidinone]", "values": [{"measurement": "HPLC of product, aerobic", "setting": "MsMftD", "value": "the HPLC chromatogram for the MsMftD reaction showed similar results to that of MuMftD"}]}
{"compound": "Cc1cc2nc3c(=O)[nH]c(=O)nc-3n(C[C@H](O)[C@H](O)[C@H](O)COP(=O)(O)O)c2cc1C", "note": "[FMN]", "values": [{"measurement": "HPLC of flavin released by heat from purified protein; UV-vis", "setting": "MuMftD (MftD)", "value": "the absorbance features of the cofactor bound to MuMftD originated from FMN"}]}
{"compound": "NC(=O)C1=CN([C@@H]2O[C@H](COP(=O)(O)OP(=O)(O)OC[C@H]3O[C@@H](n4cnc5c(N)ncnc54)[C@H](O)[C@@H]3O)[C@@H](O)[C@H]2O)C=CC1", "note": "[NADH]", "values": [{"measurement": "UV-vis absorbance of copurified NADH at 340 nm", "setting": "[1]", "value": "PMFT is mediating the oxidation of NADH to NAD^+ on MsCDH"}]}
